Like-named read-outs stand apart in the source and are kept apart here.
What was measured:
GSK3α [1] = molecular target: T1, GSK3α (Homo sapiens, UniProt P49840); conditions: for IC50: read-out: Caliper Assay, GSK3α IC50
Procedure: (§1) Reactions were terminated by the addition of 10 mM EDTA. Substrate and product were separated electrophoretically and fluorescence intensity of the substrate and product was determined by Labchip EZ Reader II (Caliper Life Sciences, MA). The kinase activity was measured as percent conversion. The reactions were performed in duplicate for each sample. […] The results were analyzed by Genedata Assay Analyzer. The percent inhibition was plotted against the compound concentration and the IC50 value was determined from the logistic dose-response curve fitting.

GSK3β [2] = molecular target: T2, GSK3β (Homo sapiens, UniProt P49841); test: biochemical
GSK3α [3] = molecular target: T1, GSK3α; test: biochemical
Procedure: as §1

GSK3β [4] = molecular target: T2, GSK3β
[5] = Caliper assay, GSK3α over GSK3β
[6] = Caliper assay, GSK3β over GSK3α

T1 sequence (P49840 whole entry): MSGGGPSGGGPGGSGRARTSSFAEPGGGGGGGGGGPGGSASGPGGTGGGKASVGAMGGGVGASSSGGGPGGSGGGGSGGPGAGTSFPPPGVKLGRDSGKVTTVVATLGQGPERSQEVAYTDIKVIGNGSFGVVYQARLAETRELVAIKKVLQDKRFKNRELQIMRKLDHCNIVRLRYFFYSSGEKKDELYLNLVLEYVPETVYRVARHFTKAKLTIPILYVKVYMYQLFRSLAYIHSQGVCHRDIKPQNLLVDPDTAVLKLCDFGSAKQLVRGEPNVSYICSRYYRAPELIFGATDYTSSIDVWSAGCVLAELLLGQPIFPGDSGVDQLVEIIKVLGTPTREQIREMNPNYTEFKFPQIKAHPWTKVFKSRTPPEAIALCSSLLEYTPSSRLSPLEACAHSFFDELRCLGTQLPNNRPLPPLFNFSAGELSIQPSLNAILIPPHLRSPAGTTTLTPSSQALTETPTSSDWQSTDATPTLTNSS
T2 sequence (P49841 whole entry): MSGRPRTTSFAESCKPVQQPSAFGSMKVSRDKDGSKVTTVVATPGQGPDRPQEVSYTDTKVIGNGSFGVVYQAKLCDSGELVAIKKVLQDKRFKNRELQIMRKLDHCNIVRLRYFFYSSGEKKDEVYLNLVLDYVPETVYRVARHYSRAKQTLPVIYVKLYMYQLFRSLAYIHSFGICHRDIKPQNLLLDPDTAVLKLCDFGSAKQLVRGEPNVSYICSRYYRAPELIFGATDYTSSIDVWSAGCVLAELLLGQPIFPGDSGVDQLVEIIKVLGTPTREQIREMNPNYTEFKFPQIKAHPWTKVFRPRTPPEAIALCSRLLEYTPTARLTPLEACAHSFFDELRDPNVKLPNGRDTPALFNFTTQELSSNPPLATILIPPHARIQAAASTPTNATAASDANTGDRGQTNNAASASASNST

Structure (SMILES) | GSK3α fold selectivity (GSK3α [1]; [5]) [fold] | IC50 (GSK3β [2]) [nM] | IC50 (GSK3α [3]) [nM] | also measured
CC1(C)CC(=O)C2=C(C1)Nc1n[nH]cc1C2(C)c1cccc(F)c1 (racemic) [Compound 201] | 3.8 | 901 | 239 | 
CC1(C)CC(=O)C2=C(C1)Nc1n[nH]cc1C2(C)c1cccc(C(F)(F)F)c1 (racemic) [Compound 206] | 10.0 | 4 | 0.4 | 
CCC1(c2cccc(Cl)c2)C2=C(CC(C)(C)CC2=O)Nc2n[nH]cc21 (racemic) [Compound 218] | 5.8 | 312 | 54 | 
CCC1(c2cccc(C(C)(C)C)c2)C2=C(CC(C)(C)CC2=O)Nc2n[nH]cc21 (racemic) [Compound 225] | 6.6 | 86 | 13 | 
CCCC1(c2ccccc2)C2=C(CC(C)(C)CC2=O)Nc2n[nH]cc21 (racemic) [Compound 228] | 4.7 | 1310 | 280 | 
CC(C)C1(c2ccccc2)C2=C(CC(C)(C)CC2=O)Nc2n[nH]cc21 (racemic) [Compound 231] | 2.9 | 1890 | 644 | 
CCC1(c2ccccc2)C2=C(CC3(COC3)CC2=O)Nc2n[nH]cc21 (racemic) [Compound 236] | 6.4 | 7860 | 1230 | 
CCC1(c2ccccc2)C2=C(CC(C)(C)CC2=O)Nc2n[nH]c(C3CC3)c21 (racemic) [Compound 244] | 1.9 | 43 | 23 | 
CC1(C)CC(=O)C2=C(C1)Nc1n[nH]cc1[C@]2(C)c1cccc(F)c1 (stereo in doubt) [Compound 202] | 2.7 | 1240 | 465 | 
CC1(C)CC(=O)C2=C(C1)Nc1n[nH]cc1[C@@]2(C)c1cccc(F)c1 (stereo in doubt) [Compound 203] | 3.0 | 28900 | 9600 | 
CC1(C)CC(=O)C2=C(C1)Nc1n[nH]cc1[C@]2(C)c1cccc(Cl)c1 (stereo in doubt) [Compound 204] | 4.7 | 173 | 37 | 
CC1(C)CC(=O)C2=C(C1)Nc1n[nH]cc1[C@@]2(C)c1cccc(Cl)c1 (stereo in doubt) [Compound 205] | 7.1 | 33400 | 4720 | 
CC1(C)CC(=O)C2=C(C1)Nc1n[nH]cc1[C@]2(C)c1cccc(C(F)(F)F)c1 (stereo in doubt) [Compound 207] | 7.0 | 14 | 2 | 
CC1(C)CC(=O)C2=C(C1)Nc1n[nH]cc1[C@@]2(C)c1cccc(C(F)(F)F)c1 (stereo in doubt) [Compound 208] | 6.4 | 1450 | 225 | 
CC1(C)CC(=O)C2=C(C1)Nc1n[nH]cc1[C@]2(C)c1cccc(C#N)c1 (stereo in doubt) [Compound 209] | 5.0 | 30 | 6 | 
CC1(C)CC(=O)C2=C(C1)Nc1n[nH]cc1[C@@]2(C)c1cccc(C#N)c1 (stereo in doubt) [Compound 210] | 3.8 | 8860 | 2350 | 
CC[C@@]1(c2cccc(F)c2)C2=C(CC(C)(C)CC2=O)Nc2n[nH]cc21 (stereo in doubt) [Compound 214] | 6.7 | 388 | 58 | 
CC[C@]1(c2cccc(F)c2)C2=C(CC(C)(C)CC2=O)Nc2n[nH]cc21 (stereo in doubt) [Compound 215] | >3.5 | > 33000 | 9550 | 
CC[C@@]1(c2cc(F)cc(F)c2)C2=C(CC(C)(C)CC2=O)Nc2n[nH]cc21 (stereo in doubt) [Compound 216] | 9.0 | 4040 | 450 | 
CC[C@@]1(c2cccc(Cl)c2)C2=C(CC(C)(C)CC2=O)Nc2n[nH]cc21 (stereo in doubt) [Compound 219] | 8.8 | 79 | 9 | 
CC[C@]1(c2cccc(Cl)c2)C2=C(CC(C)(C)CC2=O)Nc2n[nH]cc21 (stereo in doubt) [Compound 220] | 6.8 | 24400 | 3610 | 
CC[C@@]1(c2cc(Cl)cc(Cl)c2)C2=C(CC(C)(C)CC2=O)Nc2n[nH]cc21 (stereo in doubt) [Compound 221] | 8.9 | 929 | 104 | 
CC[C@]1(c2cc(Cl)cc(Cl)c2)C2=C(CC(C)(C)CC2=O)Nc2n[nH]cc21 (stereo in doubt) [Compound 222] | 6.4 | 11300 | 1750 | 
CC[C@@]1(c2cccc(C(F)(F)F)c2)C2=C(CC(C)(C)CC2=O)Nc2n[nH]cc21 (stereo in doubt) [Compound 223] | 7.5 | 15 | 2 | 
CC[C@]1(c2cccc(C(F)(F)F)c2)C2=C(CC(C)(C)CC2=O)Nc2n[nH]cc21 (stereo in doubt) [Compound 224] | 5.3 | 20500 | 3900 | 

Structure (SMILES) | GSK3α fold selectivity (GSK3α [1]; [5]) [fold] | IC50 (GSK3β [2]) [nM] | IC50 (GSK3α [3]) [nM] | also measured
CC[C@]1(c2cccc(C(C)(C)C)c2)C2=C(CC(C)(C)CC2=O)Nc2n[nH]cc21 (stereo in doubt) [Compound 227] | 2.3 | 8350 | 3630 | 
CCC[C@@]1(c2ccccc2)C2=C(CC(C)(C)CC2=O)Nc2n[nH]cc21 (stereo in doubt) [Compound 229] | 1.9 | 1890 | 970 | 
CC(C)[C@@]1(c2ccccc2)C2=C(CC(C)(C)CC2=O)Nc2n[nH]cc21 (stereo in doubt) [Compound 232] | 4.4 | 4400 | 1010 | 
CC(C)[C@]1(c2ccccc2)C2=C(CC(C)(C)CC2=O)Nc2n[nH]cc21 (stereo in doubt) [Compound 233] | 1.6 | 7290 | 4540 | 
CC[C@@]1(c2ccccc2)C2=C(CC3(CCCCC3)CC2=O)Nc2n[nH]cc21 (stereo in doubt) [Compound 234] | 6.4 | 1030 | 160 | 
CC1(C)CC(=O)C2=C(C1)Nc1n[nH]c(C(F)(F)F)c1C2c1cccc(OC(F)(F)F)c1 (stereo not drawn) [Compound 57] |  | < 100 |  | IC50 (GSK3α [1]): < 100 nM
Cc1[nH]nc2c1[C@@](c1ccccc1)(C(F)(F)F)C1=C(CC(C)(C)CC1=O)N2 [Compound 93, 1,6,6-trimethyl-9-phenyl-9-(trifluoromethyl)-5,6,7,9-tetrahydro-2H-pyrazolo[3,4-b]quinolin-8(4H)-one] |  |  |  | IC50 (GSK3α [1]): < 100 nM
Cc1[nH]nc2c1[C@@](C)(c1cccc(C#N)c1)C1=C(CC(C)(C)CC1=O)N2 [Compound 97, 3-(1,6,6,9-tetramethyl-8-oxo-4,5,6,7,8,9-hexahydro-2H-pyrazolo[3,4-b]quinolin-9-yl)benzonitrile] |  |  |  | GSK3α fold selectivity (GSK3α [1]; GSK3α over GSK3β): 5.9 fold
Cc1[nH]nc2c1C1(CCCC1)C1=C(CC(C)(C)CC1=O)N2 [Compound 102] |  |  |  | GSK3α fold selectivity (GSK3α [1]; GSK3α over GSK3β): 1.9 fold
COC(=O)c1[nH]nc2c1C(C)(c1ccccc1)C1=C(CC(C)(C)CC1=O)N2 (stereo not drawn) [Compound 104] |  |  |  | GSK3α fold selectivity (GSK3α [1]; GSK3α over GSK3β): 1.5 fold
CC1(C)CC(=O)C2=C(C1)Nc1n[nH]c(Cl)c1C2(C)c1ccccc1 (stereo not drawn) [Compound 110] |  |  |  | GSK3α fold selectivity (GSK3α [1]; GSK3α over GSK3β): 1.8 fold
CC1(C)CC(=O)C2=C(C1)Nc1n[nH]c(Br)c1C2(C)c1ccccc1 (stereo not drawn) [Compound 111] |  |  |  | GSK3α fold selectivity (GSK3α [1]; GSK3α over GSK3β): 3.1 fold
CC1(C)CC(=O)C2=C(C1)Nc1n[nH]c(C3CC3)c1C2(C)c1ccccc1F (stereo not drawn) [Compound 116] |  |  |  | GSK3α fold selectivity (GSK3α [1]; GSK3α over GSK3β): 1.1 fold
CC1(C)CC(=O)C2=C(C1)Nc1n[nH]c(C3CC3)c1C2(C)c1cccc(C(F)(F)F)c1 (stereo not drawn) [Compound 118] |  |  |  | GSK3α fold selectivity (GSK3α [1]): 1.1 fold
Cc1[nH]nc2c1[C@](C)(c1ccccc1)C1=C(CC(C)(C)CC1=O)N2 [Compound 123] |  | < 100 |  | GSK3α fold selectivity (GSK3α [1]; GSK3α over GSK3β): 3.6 fold
CC1(C)CC(=O)C2=C(C1)Nc1n[nH]c(C3CC(F)(F)C3)c1[C@]21CCOc2ccccc21 [Compound 270] |  | 210 | 1630 | GSK3β fold selectivity (GSK3β [4]): 7.8 fold
CCC1(c2ccccc2)C2=C(CC(C)(C)CC2=O)Nc2n[nH]c(CC(C)(C)C)c21 (stereo not drawn) [Compound 274] |  | 100 | 340 | GSK3β fold selectivity (GSK3β [4]; [6]): 3.4 fold
CN1C(=O)C2(C3=C(CC(C)(C)CC3=O)Nc3n[nH]c(CC(C)(C)C)c32)c2ccccc21 (stereo not drawn) [Compound 287] |  | 939 | 8300 | GSK3β fold selectivity (GSK3β [4]; [6]): 8.8 fold
COc1ccccc1[C@H]1C2=C(CC(C)(C)CC2=O)Nc2n[nH]c(C(C)C)c21 [Compound 295] |  | 57 | 462 | GSK3β fold selectivity (GSK3β [4]; [6]): 8.1 fold
CC(C)c1[nH]nc2c1C(C)(c1ccccc1)C1=C(CC(C)(C)CC1=O)N2 (stereo not drawn) [Compound 296] |  | 76 | 241 | GSK3β fold selectivity (GSK3β [4]; [6]): 3.2 fold
CCC(C)c1[nH]nc2c1C(C)(c1ccccc1)C1=C(CC(C)(C)CC1=O)N2 (stereo not drawn) [Compound 299] |  | 90 | 277 | GSK3β fold selectivity (GSK3β [4]; [6]): 3.1 fold
CCc1ccccc1[C@@H]1C2=C(CC(C)(C)CC2=O)Nc2n[nH]c(C(C)C)c21 [Compound 322] |  | 42 | 462 | GSK3β fold selectivity (GSK3β [4]; [6]): 11.0 fold
COc1cc(F)ccc1[C@H]1C2=C(CC(C)(C)CC2=O)Nc2n[nH]c(C(C)C)c21 [Compound 323] |  | 20 | 271 | GSK3β fold selectivity (GSK3β [4]; [6]): 13.6 fold
COc1cc(F)ccc1[C@@H]1C2=C(CC(C)(C)CC2=O)Nc2n[nH]c(C(C)C)c21 [Compound 324] |  | 332 | 920 | GSK3β fold selectivity (GSK3β [4]; [6]): 2.8 fold

— patent US20160375006A1, “USES OF PARALOG-SELECTIVE INHIBITORS OF GSK3 KINASES” (priority 2012, published 2016)
